This note sets out measurements from PMC9200803, “Design, synthesis, and biological evaluation of tetrahydroquinolinones and tetrahydroquinolines with anticancer activity” (Scientific Reports, 2022).

Common to all, as to format: cell-based, human
For experiment [1], the system named is HCT-116 cells. The experiment is described as follows: Wound healing assay. To be noted: HCT-116, 10 and 20 µM, 30 and 36 h of treatment. As to the method:
A decrease in cell–cell adhesion correlates with tumor invasion and metastasis. Migration leads to spreading and metastasis of cancer cells and is thus associated with poor prognosis of many types of cancer. Moreover, studies indicate that metastasis is the major cause of death in patients with colorectal cancer (CRC)[58]. To investigate the effect of 20d on migration, HCT-116 cells were cultured and investigated by wound healing assay. The percentage of migration was monitored over time by capturing a series of images after every 6 h up to 36 h of treatment.
The antimigratory properties of 20d were investigated in HCT-116 cell line using wound healing assay. Briefly, cells were seeded and allowed to attach to the Ibidi-silicone insert on a cover glass-bottom 24-well plate for live-cell imaging. Next, the inserts were dislodged, and subsequently, cells were washed with a fresh medium and incubated with various concentrations of 20d in an imaging chamber (cellVivo incubation system, Olympus). For monitoring the migration of cells by live-cell microscopy with time-lapse photography, images were captured every 15 min for 36 h under 10× magnification using a fluorescence microscope (IX83 Inverted Microscope, Olympus) equipped with an XC50 phase-contrast digital color camera (Olympus). The distance between gaps was measured using ImageJ software.

For experiment [2], the system named is HCT-116 cells. The experiment is described as follows: Annexin V-FITC / PI staining, flow cytometry. Particulars: HCT-116, Annexin V/PI. An excerpt: Due to its ability to mediate the redox signaling pathways, ROS interplays between two major types of programmed cell death: autophagy and apoptosis. One of the early events in the process of apoptosis is the translocation of phosphatidylserine to the exposed membrane surface, which can be detected using Annexin V, a protein with a high affinity to this phospholipid. In order to study the impact of 20d on apoptotic cell death, flow cytometry analyses with double-staining using Annexin V-fluorescein isothiocyanate (FITC) conjugate and propidium ioidide (PI) was performed.
To determine the proapoptotic activity of compounds, cells were seeded into Petri dishes. […] DMSO (1%, Merck) and Etoposide (10 μM, Sigma-Aldrich) were used as references. Cells were harvested and stained with FITC-Annexin V, (Thermo Fisher, V13242) according to the manufacturer’s instructions. Finally, cells were stained with propidium iodide (Thermo Fisher) and assessed using a Guava easyCyte 8 cell sorter (Merck Millipore). The results were analyzed using FlowJo v10 software.
For orientation: Flow cytometry measures light scatter and fluorescence of single cells or particles in a stream.

The test system of experiment [3] is hMLH1-deficient (MMR–) RKO cells. Briefly: MTT cell viability assay, hMLH1-deficient (MMR–) RKO. An excerpt: We further attempted to determine whether 20d-induced cancer cell death was related to the induction of ROS production in HCT-116 cells. For this purpose, we pretreated cells with N-acetyl-L-cysteine (NAC), which is a commonly used antioxidant and ROS scavenger. […] HCT-116 cell line has high-frequency microsatellite instability, which is associated with deficient DNA mismatch repair (MMR)[31]. The MMR system corrects DNA-mismatched and insertion–deletion loop bases generated during DNA replication. One of the key proteins involved in the MMR pathway is MLH1, which is mutated or epigenetically silenced in many MMR-deficient (MMR^–) cells, such as HCT-116[33]. To further determine the selectivity for MMR deficiency, we analyzed the cell viability of human MutL homologue 1 (hMLH1)-deficient (MMR^–) and hMLH1-proficient (MMR^+) RKO human colon carcinoma cell lines. The latter was established by transfecting hMLH1 cDNA into MMR^− RKO cell line[34]. In MMR^– RKO cells, the hMLH1 gene promoter was silenced transcriptionally by hypermethylation. […]
The viability of cells was determined in response to the newly synthesized compounds using the MTT (Sigma-Aldrich) assay. […] Next, the medium was removed, the formazan product formed was dissolved in 100 μl of DMSO, and the absorbance was determined at 540 nm using an ASYS UVM340 microplate reader (Biochrom Ltd.). […]

The subject of experiment [4] is HCT-116 cells. The experiment is described as follows: Colony formation (clonogenic) assay. To be noted: HCT-116, 24 h pretreatment, 9 days culture. As to the method: A total of 500 HCT-116 cells/well was seeded into six-well plates. After attachment, cells were pretreated with DMSO (1%) or various concentrations of 20d and 19b for 24 h. Following incubation, the medium was changed, and cells were cultured for 9 days. After culturing, cells were washed with phosphate-buffered saline (PBS), fixed with 100% methanol for 30 min, and then stained with 0.5% crystal violet for 15 min. The plates were air-dried, and visible colonies were counted using ImageJ software. The percentage viability of cells was calculated in comparison to the control.

SMILES strings stand for the structures.

On to `O=C(Nc1cccc(F)c1)OC1CCCc2c(-c3ccccc3)cc(=O)[nH]c21` (centres unmarked) [Compound 20d, (2-oxo-4-phenyl-5,6,7,8-tetrahydroquinolin-8-yl) N-(3-fluorophenyl)carbamate], for which the inhibition of migration with HCT-116 cells [1] was 30–50%. Further, the “early and late apoptotic and necrotic fractions” value with HCT-116 cells [2] is on record as “on the same level as in DMSO-treated group”. The same compound gave an IC50 in experiment [3] (Homo sapiens, RKO, mean ± SD) of 1.21 ± 0.13 µM. For the same compound, the “fold higher sensitivity of MMR– RKO vs MMR+ RKO cells” value in experiment [3] (p < 0.001) is 3.95 fold. In the experiment on HCT-116 cells [4], the formation of colonies result is given as “effectively inhibited the formation of colonies in a concentration-dependent manner”.

In general, IC50 refers to the midpoint of a concentration-inhibition curve. Read a low IC50 as higher potency.
